Laboratory results reported in paper PMC9733060, “Novel alendronate-CGS21680 conjugate reduces bone resorption and induces new bone formation in post-menopausal osteoporosis and inflammatory osteolysis mouse models” (Arthritis Research & Therapy, 2022).
Where two headings read alike, the source gives them in different places. Marks after values point to notes of the source that are not given here.

What was measured:
[1] = system: human primary osteoclasts; test: human primary osteoclast differentiation (RANKL, TRAP staining); format: cell-based; details: 0.001-10 μM, 7 days, 30 ng/mL RANKL
Method: Human bone marrow was obtained from 4 OA patients who underwent hip replacement surgery and all protocols were approved by the NYU School of Medicine’s IRB. Precursor cells were flushed out from femoral head with DMEM media with 10% fetal bovine serum (FBS), and 100 U/ml of penicillin and streptomycin (Lonza, Belgium) in sterile conditions and incubated for 48h non-adherent cells were collected and differentiated to osteoclasts and adherents cell were differentiated to osteoblasts as previously described.
Osteoclast differentiation was assessed by TRAP staining by incubating PFA fixed samples with TRAP buffer (0.1M acetate buffer, 0.3M sodium tartrate, 10mg/ml Naphthol AS-MX phosphate, 0.1% Triton X-100, 0.3mg/ml Fast Red Violet LB (Sigma-Aldrich, St. Louis, MO, USA)) for 10 min. Images were taken in a Leica (Morrisville, NC, USA) inverted microscope.

[2] = cited from earlier work
[3] = system: ovariectomy-induced osteoporotic mice; format: in vivo; details: μCT, mean ± SEM, 10 mg/kg weekly IP, 9 weeks
[4] = system: UHMWPE-induced osteolytic mice (WT); test: UHMWPE wear particle-induced osteolysis (OL) in WT mice calvaria; format: in vivo, mouse; details: doses <10mg/kg/week, data not shown
[5] = system: human primary osteoclasts; set-up: method as in PMID 23647065, PMID 25573752; details: previously demonstrated; cited from earlier work

NCCCC(O)(P(=O)(O)O)P(=O)(O)O [Alendronate, alendronic acid]
inhibition of osteoclast differentiation (anti-osteoclastogenic properties) [1]: more potent than AlenP
time for kidneys to excrete the amount not taken up by bone tissues [2]: ≤ 24 h
elimination from bone tissue ([2]; humans): up to 12 years
BS/BV ([3]; L5 vertebra trabecular bone): 71.26 ± 2.80* 1/mm
BV/TV ([3]; L5 vertebra trabecular bone): 12.34 ± 0.74 %
Tb.N ([3]; L5 vertebra trabecular bone): 2.60 ± 0.21 * 1/mm
Tb.Pf ([3]; L5 vertebra trabecular bone): 13.73 ± 1.23 # 1/mm
Tb.Sp ([3]; L5 vertebra trabecular bone): 0.298 ± 0.012 μm
Tb.Th ([3]; L5 vertebra trabecular bone): 0.047 ± 0.002 μm
BV ([3]; femur cortical bone): 0.442 ± 0.014 * mm^3
BV/TV ([3]; femur cortical bone): 44.50 ± 1.03
TV ([3]; femur cortical bone): 0.994 ± 0.042 mm^3
BS/BV ([3]; femur trabecular bone): 89.18 ± 4.61 1/mm
BV/TV ([3]; femur trabecular bone): 0.771 ± 0.210 %
Tb.N ([3]; femur trabecular bone): 0.164 ± 0.043 # 1/mm
Tb.Pf ([3]; femur trabecular bone): 37.43 ± 2.48 1/mm
Tb.Sp ([3]; femur trabecular bone): 0.702 ± 0.100 # μm
Tb.Th ([3]; femur trabecular bone): 0.0468 ± 0.0014 μm

CCNC(=O)[C@H]1O[C@@H](n2cnc3c(N)nc(NCCc4ccc(CCC(=O)O)cc4)nc32)[C@H](O)[C@@H]1O [CGS21680, 2-[p-(2-carboxyethyl)-phenethylamino]-5'-N-ethylcarboxamido adenosine]
effect on bone density in the affected areas [4]: none of the doses tested <10mg/kg/week had any effect on bone density

Nc1nc(NCCc2ccc(O)cc2)nc2nc(-c3ccco3)nn12 [ZM21385]
effect on osteoclast differentiation [5]: increases osteoclast differentiation
